Among the data in patent US20260138961A1, “MODULATORS OF MITOCHONDRIAL DNA REPLICATION” (Pretzel Therapeutics, Inc., priority 2022, published 2026) are AC50 values, retold here.

The assay deals with T1, wild type human POLγ (POLγA:WT) (Homo sapiens, UniProt P54098).
T1 sequence (P54098 1-1239): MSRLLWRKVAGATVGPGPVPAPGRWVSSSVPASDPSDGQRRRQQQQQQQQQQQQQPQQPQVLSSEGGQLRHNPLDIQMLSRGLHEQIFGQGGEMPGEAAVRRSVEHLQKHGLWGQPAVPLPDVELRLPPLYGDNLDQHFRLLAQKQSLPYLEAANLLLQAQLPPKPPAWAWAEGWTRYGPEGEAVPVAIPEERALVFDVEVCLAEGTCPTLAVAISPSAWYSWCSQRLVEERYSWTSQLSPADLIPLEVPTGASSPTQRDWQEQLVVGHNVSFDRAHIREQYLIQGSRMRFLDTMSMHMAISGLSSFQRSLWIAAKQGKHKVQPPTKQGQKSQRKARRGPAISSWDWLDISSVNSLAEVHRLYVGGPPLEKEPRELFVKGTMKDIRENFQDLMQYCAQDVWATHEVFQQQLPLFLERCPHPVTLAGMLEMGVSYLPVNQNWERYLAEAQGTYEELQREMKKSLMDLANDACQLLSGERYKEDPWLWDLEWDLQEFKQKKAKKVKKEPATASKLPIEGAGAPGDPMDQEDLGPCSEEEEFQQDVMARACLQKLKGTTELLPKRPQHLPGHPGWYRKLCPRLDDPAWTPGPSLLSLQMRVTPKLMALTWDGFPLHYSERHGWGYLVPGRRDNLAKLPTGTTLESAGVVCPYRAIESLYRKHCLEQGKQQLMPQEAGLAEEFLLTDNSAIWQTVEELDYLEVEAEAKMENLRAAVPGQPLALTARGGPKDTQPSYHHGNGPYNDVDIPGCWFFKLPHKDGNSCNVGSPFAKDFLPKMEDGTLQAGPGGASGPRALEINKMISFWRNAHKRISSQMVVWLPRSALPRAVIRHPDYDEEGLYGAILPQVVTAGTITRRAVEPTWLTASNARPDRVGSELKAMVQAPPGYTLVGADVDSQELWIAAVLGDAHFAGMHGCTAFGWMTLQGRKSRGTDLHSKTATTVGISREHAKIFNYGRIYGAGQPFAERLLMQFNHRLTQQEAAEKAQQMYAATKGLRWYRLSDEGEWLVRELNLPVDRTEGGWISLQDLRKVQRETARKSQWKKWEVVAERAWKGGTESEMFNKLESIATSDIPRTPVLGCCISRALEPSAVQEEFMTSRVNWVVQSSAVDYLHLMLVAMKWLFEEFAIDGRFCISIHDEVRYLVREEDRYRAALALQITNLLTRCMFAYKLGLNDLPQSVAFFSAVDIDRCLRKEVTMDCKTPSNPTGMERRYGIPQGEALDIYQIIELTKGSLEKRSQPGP
T1 sequence (Q9UHN1 1-485 partner): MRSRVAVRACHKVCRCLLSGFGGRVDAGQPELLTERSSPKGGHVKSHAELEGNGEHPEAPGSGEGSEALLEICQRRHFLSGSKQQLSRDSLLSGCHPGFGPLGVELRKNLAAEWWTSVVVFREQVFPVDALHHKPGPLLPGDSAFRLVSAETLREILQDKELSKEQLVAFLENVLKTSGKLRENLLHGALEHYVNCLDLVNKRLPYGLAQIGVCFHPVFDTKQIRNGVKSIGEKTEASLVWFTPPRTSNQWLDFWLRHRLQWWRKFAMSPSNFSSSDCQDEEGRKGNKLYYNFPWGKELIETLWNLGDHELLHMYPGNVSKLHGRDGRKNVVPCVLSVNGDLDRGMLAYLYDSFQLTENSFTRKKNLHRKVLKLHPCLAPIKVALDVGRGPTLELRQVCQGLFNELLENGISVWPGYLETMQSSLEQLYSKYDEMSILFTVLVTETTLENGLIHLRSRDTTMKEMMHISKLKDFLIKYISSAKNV
In words: DNA polymerization assay, wild type POLγ. In kind it is biochemical. The following applies: 100 μM dNTP, read-out: WT AC50 (μM) at 100 μM.
As a reminder, the AC50 is the concentration giving half of the maximal activity seen. For `Cc1cc(S(=O)(=O)Nc2csc(C(=O)N3CCCC3)n2)c(C)cc1Cl` [Example 166, 4-chloro-2,5-dimethyl-N-(2-(pyrrolidine-1-carbonyl)thiazol-4-yl)benzenesulfonamide], the AC50 turned out to be 2 µM.

Consider `Cc1cc(S(=O)(=O)Nc2csc(C3CCOCC3)n2)c(C)cc1Cl` [Example 167, 4-chloro-2,5-dimethyl-N-(2-(tetrahydro-2H-pyran-4-yl)thiazol-4-yl)benzenesulfonamide], for which the AC50 came to 4 µM.

With `Cc1cc(S(=O)(=O)Nc2cn(Cc3ccccc3)cn2)c(C)cc1Cl` [Example 168, N-(1-benzyl-1H-imidazol-4-yl)-4-chloro-2,5-dimethylbenzenesulfonamide], the half-maximal activity concentration (AC50) is > 10 µM.

Take `Cc1cc(S(=O)(=O)Nc2cn(-c3ccccc3)cn2)c(C)cc1Cl` [Example 169, 4-chloro-2,5-dimethyl-N-(1-phenyl-1H-imidazol-4-yl)benzenesulfonamide]: the concentration at half-maximal activity (AC50) is > 10 µM.

As for `Cc1cc(S(=O)(=O)Nc2cn(C)c(-c3ccccc3)n2)c(C)cc1Cl` [Example 170, 4-chloro-2,5-dimethyl-N-(1-methyl-2-phenyl-1H-imidazol-4-yl)benzenesulfonamide], the concentration at half-maximal activity (AC50) was > 10 µM.

Turning to `Cc1cc(S(=O)(=O)Nc2cnn(-c3ccccc3)n2)c(C)cc1Cl` [Example 171, 4-chloro-2,5-dimethyl-N-(2-phenyl-2H-1,2,3-triazol-4-yl)benzenesulfonamide], the AC50 turned out to be 5 µM.

Take `Cc1cc(S(=O)(=O)Nc2csc(C(=O)N(C)CC(N)=O)n2)c(C)cc1Cl` [Example 172, N-(2-amino-2-oxoethyl)-4-((4-chloro-2,5-dimethylphenyl)sulfonamido)-N-methylthiazole-2-carboxamide]: the concentration at half-maximal activity (AC50) is > 100 µM.

`Cc1cc(S(=O)(=O)Nc2csc(-c3ccccn3)n2)c(C)cc1Cl` [Example 173, 4-chloro-2,5-dimethyl-N-(2-(pyridin-2-yl)thiazol-4-yl)benzenesulfonamide]: the AC50 was 0.2 µM.

With `Cc1cc(S(=O)(=O)Nc2csc(C(=O)N3CCC[C@H]3C)n2)c(C)cc1Cl` [Example 174, (R)-4-chloro-2,5-dimethyl-N-(2-(2-methylpyrrolidine-1-carbonyl)thiazol-4-yl)benzenesulfonamide], the AC50 came to 0.1 µM.

Turning to `Cc1cc(S(=O)(=O)Nc2csc(C(=O)N3CCC[C@@H]3C)n2)c(C)cc1Cl` [Example 175, (S)-4-chloro-2,5-dimethyl-N-(2-(2-methylpyrrolidine-1-carbonyl)thiazol-4-yl)benzenesulfonamide], the AC50 is 3 µM.

As for `Cc1cc(S(=O)(=O)Nc2csc(-c3ccncc3)n2)c(C)cc1Cl` [Example 176, 4-chloro-2,5-dimethyl-N-(2-(pyridin-4-yl)thiazol-4-yl)benzenesulfonamide], the AC50 is > 100 µM.

As for `Cc1cc(S(=O)(=O)Nc2csc(C(=O)N(CC(N)=O)C3CCCC3)n2)c(C)cc1Cl` [Example 177, N-(2-amino-2-oxoethyl)-4-((4-chloro-2,5-dimethylphenyl)sulfonamido)-N-cyclopentylthiazole-2-carboxamide], the half-maximal activity concentration (AC50) is > 100 µM.

Turning to `Cc1cc(S(=O)(=O)Nc2csc(-n3cccn3)n2)c(C)cc1Cl` [Example 178, N-(2-(1H-pyrazol-1-yl)thiazol-4-yl)-4-chloro-2,5-dimethylbenzenesulfonamide], the AC50 is > 100 µM.

With `Cc1cc(S(=O)(=O)Nc2csc(C(=O)N(CC(N)=O)C3CCCCC3)n2)c(C)cc1Cl` [Example 179, N-(2-amino-2-oxoethyl)-4-((4-chloro-2,5-dimethylphenyl)sulfonamido)-N-cyclohexylthiazole-2-carboxamide], the AC50 was > 10 µM.

On to `Cc1cc(S(=O)(=O)Nc2nc(-c3ccccc3)n(C)n2)c(C)cc1Cl` [Example 180, 4-chloro-2,5-dimethyl-N-(1-methyl-5-phenyl-1H-1,2,4-triazol-3-yl)benzenesulfonamide], for which the half-maximal activity concentration (AC50) is > 10 µM.

For the molecule `Cc1cc(S(=O)(=O)Nc2csc(-c3ccn(C)n3)n2)c(C)cc1Cl` [Example 181, 4-chloro-2,5-dimethyl-N-(2-(1-methyl-1H-pyrazol-3-yl)thiazol-4-yl)benzenesulfonamide], the AC50 was > 10 µM.

As for `Cc1cc2cc(NS(=O)(=O)c3cc(C)c(Cl)cc3C)ccc2[nH]1` [Example 184, 4-chloro-2,5-dimethyl-N-(2-methyl-1H-indol-5-yl)benzenesulfonamide], the concentration at half-maximal activity (AC50) is > 100 µM.
